{
  "source": "paper PMC10254657",
  "about": "“Efficient pH-Responsive Nano-Drug Delivery System Based on Dynamic Boronic Acid/Ester Transformation” (Molecules, 2023)",
  "key": {"DU145 tumor xenografts": {"test_system": "DU145 tumor xenografts", "assay": "TUNEL assay of the tumors", "format": "in vivo, BALB/c nude mice", "conditions": "compared with PBS; tumors excised at 15 d", "text": "The tumor tissue and other organs from the sacrificed mice were excised at 15 d of the treatments with various drugs. After being fixed in n 4% formaldehyde, dehydrated with ethanol, and embedded in paraffin, the tumor tissue and organs were further sectioned into 5 μm slices for hematoxylin and eosin (H&E) staining and the terminal deoxynucleotidyl transferase-mediated dUTP nick-end labeling (TUNEL) staining assay. The H&E-stained tissues and TUNEL-stained tissues were imaged by fluorescence microscopy (NIKON ECLIPSE C1, Tokyo, Japan)."}, "[1]": {"assay": "In vivo pharmacokinetics after intravenous administration", "conditions": "ICR mice", "description": "Pharmacokinetics was evaluated in ICR mice (about 20 g). […] A total of 0.1 mL of fresh blood was collected through orbital at appropriate intervals, put into a centrifuge tube pretreated with heparin sodium, and centrifugated (5000 rpm, 10 min). A total of 100 µL acetonitrile was added to 50 µL of supernatant collected to extract PTX and precipitate protein in serum, and the mixture was centrifugated for another 10 min (1200 rpm). The amounts of PTX in the collected supernatant were determined by HPLC (acetonitrile:water = 50:50 (v:v); flow rate: 1.0 mL/min; wavelength: 227 nm)."}, "[2]": {"assay": "Body weight of tumor-bearing mice during treatment", "format": "in vivo, BALB/c nude mice", "conditions": "7.5 mg/kg i.v. on days 0, 3 and 6", "protocol": "(§1) BALB/c nude mice (4–5 weeks old) were used for the evaluation of the antitumor activities of the nanotherapies. The human prostate cancer cell line DU145 was grown to 80% confluence in 90 mm tissue culture dishes. After cell harvesting, the cells were resuspended in PBS at 4 °C to reach a final concentration of 1.5 × 10^7 cells/mL. The right flanks of the BALB/c nude mice were subcutaneously injected with 200 μL of a cell suspension containing 3 × 10^6 cells. At 4 days after implantation, the tumors reached approximately 150 mm^3 in volume, and then the mice were randomly divided into four groups (n = 6 mice per group). Mice bearing DU145 tumor xenografts were injected intravenously with PBS, Taxol, PTX/PBA NPs, and PTX/mPEG-PAL NPs at 7.5 mg/kg three times on days 0, 3, and 6. Tumor volumes and body weights were monitored and recorded once every three days. The lengths (L) and widths (W) of the tumors were measured with calipers, and the tumor volume was calculated by the following formula: V = (L × W^2)/2, where W is shorter than L."}, "human DU145 tumor model": {"test_system": "human DU145 tumor model", "conditions": "7.5 mg/kg i.v. on days 0, 3 and 6", "protocol": "as §1"}, "DU145 cells": {"test_system": "DU145 cells", "assay": "In vitro cytotoxicity by MTT assay", "format": "cell-based", "conditions": "Homo sapiens, DU-145, 24 h (Figure 5 legend) / 48 h (method), read-out: half-maximal inhibitory concentrations (IC50)", "description": "Human prostate cancer cells (DU145) were cultivated in DMEM supplemented with fetal bovine serum (FBS, 10%), streptomycin (100 μg/mL), and penicillin (100 units/mL). The cells were incubated in a humid atmosphere with 5% CO2 at 37 °C.\nThe in vitro cytotoxicities of PTX-loaded NPs were measured by MTT assays. Cells were seeded in 96-well plates (5000–8000 cells per well) and incubated at 37 °C. After 24 h, the medium was replaced with 180 μL of fresh medium, and the cells were treated with serial dilutions of PTX/PBA NPs, PTX/mPEG-PAL NPs, blank PBA NPs, and blank mPEG-PAL NPs (20 μL) for 48 h at 37 °C. At the end of the incubation, to each well was added […] of MTT solution (5 mg/mL in PBS). After 4 h, the MTT solution was removed from the wells, followed by the addition of supplementary DMSO (100 μL) to dissolve the purple MTT formazan crystals. The absorbance of each well was determined at 490 nm on a microplate reader (Flexstation 3, Molecular Devices LLC, Sunnyvale, CA, USA)."}},
  "data": [
    {"molecule": "CC(=O)O[C@H]1C(=O)[C@@]2(C)[C@H]([C@H](OC(=O)c3ccccc3)[C@]3(O)C[C@H](OC(=O)[C@H](O)[C@@H](NC(=O)c4ccccc4)c4ccccc4)C(C)=C1C3(C)C)[C@]1(OC(C)=O)CO[C@@H]1C[C@@H]2O", "note": "[Taxol, Paclitaxel]", "values": [
      {"measurement": "cell apoptosis rate in tumors (TUNEL)", "setting": "DU145 tumor xenografts", "value": "dramatic increase"},
      {"measurement": "t1/2α", "setting": "[1]", "value": 3.24, "unit": "min"},
      {"measurement": "AUC(0-inf)", "setting": "[1]; mouse, plasma", "value": 85.4, "unit": "ng·h/mL"},
      {"measurement": "AUC(0-t)", "setting": "[1]; mouse, plasma", "value": 67.5, "unit": "ng·h/mL"},
      {"measurement": "Cmax", "setting": "[1]; mouse, plasma", "value": 94.6, "unit": "ng/mL"},
      {"measurement": "half-life", "setting": "[1]; mouse, plasma, read-out: t1/2β (converted)", "value": 26, "unit": "min"},
      {"measurement": "body weight of mice", "setting": "[2]", "value": "remained almost unchanged in the first 9 days and then showed a slow uptrend"},
      {"measurement": "therapeutic efficacy (tumor photograph and weight at the end of treatment)", "setting": "human DU145 tumor model; end of treatment", "value": "better therapeutic efficacy than PBS"},
      {"measurement": "tumor growth (tumor volume)", "setting": "human DU145 tumor model; first 6 days", "value": "completely inhibited"},
      {"measurement": "IC50", "setting": "DU145 cells", "value": 3.04, "unit": "nM"}
    ]}
  ]
}
